Tested on: MV-4-11 cells
Experiment: Gene expression microarray analysis (Affymetrix PrimeView) and GSEA
Format: cell-based, human
Parameters: RFU PODN (11730768_x_at) / Fold change /veh PODN (11730768_x_at) / RFU LINC00158 (11744669_a_at) / Fold change /veh LINC00158 (11744669_a_at) / RFU DUSP10 (11751237_a_at) / Fold change /veh DUSP10 (11751237_a_at) / RFU ID3 (11757404_x_at) / Fold change /veh ID3 (11757404_x_at) / RFU PLEKHG5 (11737974_s_at) / Fold change /veh PLEKHG5 (11737974_s_at) / RFU LRRC4B (11730491_at) / Fold change /veh LRRC4B (11730491_at) / RFU GIMAP4 (11747438_a_at) / Fold change /veh GIMAP4 (11747438_a_at) / RFU KRT8 (11758183_x_at) / Fold change /veh KRT8 (11758183_x_at) / RFU CNN1 (11734310_a_at) / Fold change /veh CNN1 (11734310_a_at) / RFU VPS37D (11726825_at) / Fold change /veh VPS37D (11726825_at) / RFU C10orf10 (11716522_x_at) / Fold change /veh C10orf10 (11716522_x_at) / RFU KIR2DL2 /// KIR2DL4 /// KIR2DL5A /// KIR2DL5B /// KIR2DS1 /// KIR2DS2 /// KIR2DS3 /// KIR2DS4 /// KIR3DL3 /// KIR3DL3 /// KIR3DS1 (11738374_at) / Fold change /veh KIR2DL2 /// KIR2DL4 /// KIR2DL5A /// KIR2DL5B /// KIR2DS1 /// KIR2DS2 /// KIR2DS3 /// KIR2DS4 /// KIR3DL3 /// KIR3DL3 /// KIR3DS1 (11738374_at) / RFU C1QL1 (11718748_at) / Fold change /veh C1QL1 (11718748_at) / RFU TMPRSS4 (11747572_a_at) / Fold change /veh TMPRSS4 (11747572_a_at) / RFU HAMP (11756126_x_at) / Fold change /veh HAMP (11756126_x_at) / RFU RNFT2 (11725882_a_at) / Fold change /veh RNFT2 (11725882_a_at) / RFU NR4A2 (11747474_a_at) / Fold change /veh NR4A2 (11747474_a_at) / RFU ABCC12 (11746883_a_at) / Fold change /veh ABCC12 (11746883_a_at) / RFU TMEM136 (11760407_x_at) / Fold change /veh TMEM136 (11760407_x_at) / RFU CLDN22 /// WWC2 (11732394_at) / Fold change /veh CLDN22 /// WWC2 (11732394_at) / RFU HLA-DPB1 (11760878_x_at) / Fold change /veh HLA-DPB1 (11760878_x_at) / RFU SPINT1 (11716480_a_at) / Fold change /veh SPINT1 (11716480_a_at) / RFU GAP43 (11754022_s_at) / Fold change /veh GAP43 (11754022_s_at) / RFU A4GNT (11735810_at) / Fold change /veh A4GNT (11735810_at) / RFU PRB3 (11715151_x_at) / Fold change /veh PRB3 (11715151_x_at) / RFU TUBB4B (11761932_at) / Fold change /veh TUBB4B (11761932_at) / RFU CAPN14 (11732068_a_at) / Fold change /veh CAPN14 (11732068_a_at) / RFU TMCC2 (11721928_a_at) / Fold change /veh TMCC2 (11721928_a_at) / RFU IRGQ (11745062_a_at) / Fold change /veh IRGQ (11745062_a_at) / RFU FAM174B (11720279_a_at) / Fold change /veh FAM174B (11720279_a_at) / RFU TMPRSS4 (11748680_a_at) / Fold change /veh TMPRSS4 (11748680_a_at) / RFU FAM212B (11763350_a_at) / Fold change /veh FAM212B (11763350_a_at) / RFU PLEKHG5 (11743358_a_at) / Fold change /veh PLEKHG5 (11743358_a_at) / RFU ZSCAN30 (11745921_a_at) / Fold change /veh ZSCAN30 (11745921_a_at) / RFU CMKLR1 (11741424_a_at) / Fold change /veh CMKLR1 (11741424_a_at) / RFU LOC101060620 /// MAPK8IP1 (11723275_at) / Fold change /veh LOC101060620 /// MAPK8IP1 (11723275_at) / RFU SPTSSB (11747773_x_at) / Fold change /veh SPTSSB (11747773_x_at) / RFU PRSS12 (11739890_at) / Fold change /veh PRSS12 (11739890_at) / RFU BIN1 (11741810_x_at) / Fold change /veh BIN1 (11741810_x_at) / RFU WNT11 (11732464_a_at) / Fold change /veh WNT11 (11732464_a_at) / RFU C10orf10 (11716521_a_at) / Fold change /veh C10orf10 (11716521_a_at) / RFU C5orf56 (11738089_at) / Fold change /veh C5orf56 (11738089_at) / RFU CYB561 (11721691_x_at) / Fold change /veh CYB561 (11721691_x_at) / RFU ANKRD19P (11752326_a_at) / Fold change /veh ANKRD19P (11752326_a_at) / RFU OR2T12 /// OR2T33 /// OR2T8 (11738714_s_at) / Fold change /veh OR2T12 /// OR2T33 /// OR2T8 (11738714_s_at) / RFU VCAN (11748164_a_at) / Fold change /veh VCAN (11748164_a_at) / RFU JSRP1 (11732532_at) / Fold change /veh JSRP1 (11732532_at) / RFU KRTAP10-11 (11738290_x_at) / Fold change /veh KRTAP10-11 (11738290_x_at) / RFU MYO3A (11730013_a_at) / Fold change /veh MYO3A (11730013_a_at) / RFU EBF3 (11725865_a_at) / Fold change /veh EBF3 (11725865_a_at) / RFU CAMK2N1 (11719241_x_at) / Fold change /veh CAMK2N1 (11719241_x_at) / RFU C5orf56 (11738088_a_at) / Fold change /veh C5orf56 (11738088_a_at) / RFU OLFML3 (11715873_a_at) / Fold change /veh OLFML3 (11715873_a_at) / RFU LOC100653217 /// NTM (11731650_a_at) / Fold change /veh LOC100653217 /// NTM (11731650_a_at) / RFU MAPK11 (11762145_a_at) / Fold change /veh MAPK11 (11762145_a_at) / RFU FIZ1 (11724087_x_at) / Fold change /veh FIZ1 (11724087_x_at) / RFU OASL (11726364_x_at) / Fold change /veh OASL (11726364_x_at) / RFU SOX15 (11748057_x_at) / Fold change /veh SOX15 (11748057_x_at) / RFU CD79A (11719716_a_at) / Fold change /veh CD79A (11719716_a_at) / RFU HIST1H1D (11736915_at) / Fold change /veh HIST1H1D (11736915_at) / RFU CASKIN2 (11723855_a_at) / Fold change /veh CASKIN2 (11723855_a_at) / RFU LOC730098 (11760151_x_at) / Fold change /veh LOC730098 (11760151_x_at) / RFU OR4N2 (11742367_at) / Fold change /veh OR4N2 (11742367_at) / RFU PRRT2 (11749266_a_at) / Fold change /veh PRRT2 (11749266_a_at) / RFU SNX32 (11753110_a_at) / Fold change /veh SNX32 (11753110_a_at) / RFU CDHR5 (11726645_a_at) / Fold change /veh CDHR5 (11726645_a_at) / RFU RCAN1 (11760418_a_at) / Fold change /veh RCAN1 (11760418_a_at) / RFU FAM167A (11723789_a_at) / Fold change /veh FAM167A (11723789_a_at) / RFU FAM26E (11764081_at) / Fold change /veh FAM26E (11764081_at) / RFU ISYNA1 (11749810_s_at) / Fold change /veh ISYNA1 (11749810_s_at) / RFU ACY1 (11761880_at) / Fold change /veh ACY1 (11761880_at) / RFU 11764098_at / Fold change /veh 11764098_at / RFU SAMD14 (11745864_x_at) / Fold change /veh SAMD14 (11745864_x_at) / RFU NPB (11741838_a_at) / Fold change /veh NPB (11741838_a_at) / RFU TMPRSS6 (11731388_a_at) / Fold change /veh TMPRSS6 (11731388_a_at) / RFU KRTAP10-2 (11738614_at) / Fold change /veh KRTAP10-2 (11738614_at) / RFU ARHGAP8 /// PRR5-ARHGAP8 (11727945_x_at) / Fold change /veh ARHGAP8 /// PRR5-ARHGAP8 (11727945_x_at) / RFU KRTAP5-7 /// NADSYN1 (11734609_at) / Fold change /veh KRTAP5-7 /// NADSYN1 (11734609_at) / RFU RASL12 (11751679_a_at) / Fold change /veh RASL12 (11751679_a_at) / RFU CDKN2B (11736163_a_at) / Fold change /veh CDKN2B (11736163_a_at) / RFU PRF1 (11729649_at) / Fold change /veh PRF1 (11729649_at) / RFU, ZNF638 /// ZNF638-IT1 / Fold change vs veh, ZNF638 /// ZNF638-IT1 / RFU, PANK3 / Fold change vs veh, PANK3 / RFU, SH3YL1 / Fold change vs veh, SH3YL1 / RFU, ZEB2 / Fold change vs veh, ZEB2 / RFU, NRIP1 / Fold change vs veh, NRIP1 / RFU, PTTG1IP / Fold change vs veh, PTTG1IP / RFU, CAPN2 / Fold change vs veh, CAPN2 / RFU, MED14 / Fold change vs veh, MED14 / RFU, SNORA58 / Fold change vs veh, SNORA58 / RFU, C1orf63 / Fold change vs veh, C1orf63 / RFU, LRRFIP1 / Fold change vs veh, LRRFIP1 / RFU, NDUFAF7 / Fold change vs veh, NDUFAF7 / RFU, SLC12A2 / Fold change vs veh, SLC12A2 / RFU, IBTK / Fold change vs veh, IBTK / RFU, ESF1 / Fold change vs veh, ESF1 / Fold change vs veh, TMEM50B / RFU, TAOK1 / Fold change vs veh, TAOK1 / RFU, ACBD3 / Fold change vs veh, ACBD3 / RFU, TMA16 / Fold change vs veh, TMA16 / RFU, RWDD3 / Fold change vs veh, RWDD3 / RFU, BCAT1 / Fold change vs veh, BCAT1 / RFU, EDEM3 / Fold change vs veh, EDEM3 / RFU, TMEM33 / Fold change vs veh, TMEM33 / RFU, WDR75 / Fold change vs veh, WDR75 / RFU, AHCTF1 / Fold change vs veh, AHCTF1 / RFU, TFRC / Fold change vs veh, TFRC / RFU, ZDHHC17 / Fold change vs veh, ZDHHC17 / RFU, NOM1 / Fold change vs veh, NOM1 / RFU, ARL8B / Fold change vs veh, ARL8B / RFU, ZBTB11 / Fold change vs veh, ZBTB11 / RFU, TAMM41 / Fold change vs veh, TAMM41 / RFU, KIAA1704 /// LOC100996395 / Fold change vs veh, KIAA1704 /// LOC100996395 / RFU, ING1 / Fold change vs veh, ING1 / RFU, TRMT61B / Fold change vs veh, TRMT61B / RFU, FUBP3 / Fold change vs veh, FUBP3 / RFU, TP53 / Fold change vs veh, TP53 / RFU, TNKS2 / Fold change vs veh, TNKS2 / RFU, ZFP14 / Fold change vs veh, ZFP14 / RFU, ACTR2 / Fold change vs veh, ACTR2 / RFU, PPP3R1 / Fold change vs veh, PPP3R1 / RFU, PIK3R1 / Fold change vs veh, PIK3R1 / RFU, HNRNPA1 / Fold change vs veh, HNRNPA1 / RFU, RNF170 / Fold change vs veh, RNF170 / RFU, ZNF28 / Fold change vs veh, ZNF28 / RFU, RNGTT / Fold change vs veh, RNGTT / RFU, OGT / Fold change vs veh, OGT / RFU, BRD1 / Fold change vs veh, BRD1 / RFU, MARS / Fold change vs veh, MARS / RFU, ZNF655 / Fold change vs veh, ZNF655 / RFU, FAHD1 / Fold change vs veh, FAHD1 / RFU, BDP1 / Fold change vs veh, BDP1 / RFU, LRRCC1 / Fold change vs veh, LRRCC1 / RFU, ARID1A / Fold change vs veh, ARID1A / RFU, ZNF146 / Fold change vs veh, ZNF146 / RFU, ZNF330 / Fold change vs veh, ZNF330 / RFU, GPN3 / Fold change vs veh, GPN3 / RFU, C9orf123 / Fold change vs veh, C9orf123 / RFU, N4BP2L2 / Fold change vs veh, N4BP2L2 / RFU, ARFIP1 / Fold change vs veh, ARFIP1 / RFU, FAM179B / Fold change vs veh, FAM179B / RFU, BCL10 / Fold change vs veh, BCL10 / RFU, UHRF1BP1L / Fold change vs veh, UHRF1BP1L / RFU, BET1 / Fold change vs veh, BET1 / RFU, CNOT2 / Fold change vs veh, CNOT2 / RFU, ZNF268 / Fold change vs veh, ZNF268 / Fold change vs veh, ZNF507 / RFU, DGCR2 / Fold change vs veh, DGCR2 / RFU, WDSUB1 / Fold change vs veh, WDSUB1 / Fold change vs veh, HSP90B1 /// MIR3652 / RFU, ADSS / Fold change vs veh, ADSS / RFU, GK / Fold change vs veh, GK / RFU, ZNF148 / Fold change vs veh, ZNF148 / RFU, TAF9 / Fold change vs veh, TAF9 / RFU, SLC1A5 / Fold change vs veh, SLC1A5 / RFU, SLMO2 / Fold change vs veh, SLMO2 / RFU, ABCC4 / Fold change vs veh, ABCC4 / RFU, LOC101060439 /// RAP1B / Fold change vs veh, LOC101060439 /// RAP1B / RFU, RFX7 / Fold change vs veh, RFX7 / RFU, GTPBP10 / Fold change vs veh, GTPBP10 / RFU, CNEP1R1 / Fold change vs veh, CNEP1R1 / RFU, BIVM-ERCC5 /// ERCC5 / Fold change vs veh, BIVM-ERCC5 /// ERCC5 / RFU, ILF3 / Fold change vs veh, ILF3 / RFU 11762660_at / Fold change /veh 11762660_at / RFU VCAN (11757783_s_at) / Fold change /veh VCAN (11757783_s_at) / RFU DDX43 (11728927_at) / Fold change /veh DDX43 (11728927_at) / RFU KRT8 (11758188_x_at) / Fold change /veh KRT8 (11758188_x_at) / RFU NKD1 (11759106_at) / Fold change /veh NKD1 (11759106_at) / RFU SRD5A1 (11742802_a_at) / Fold change /veh SRD5A1 (11742802_a_at) / RFU TPSAB1 /// TPSB2 (11721975_s_at) / Fold change /veh TPSAB1 /// TPSB2 (11721975_s_at) / RFU GSTM3 (11746129_a_at) / Fold change /veh GSTM3 (11746129_a_at) / RFU IL23R (11737362_x_at) / Fold change /veh IL23R (11737362_x_at) / RFU TMEM51 (11727254_a_at) / Fold change /veh TMEM51 (11727254_a_at) / RFU PIWIL2 (11732686_x_at) / Fold change /veh PIWIL2 (11732686_x_at) / RFU ORM1 (11744905_x_at) / Fold change /veh ORM1 (11744905_x_at) / RFU CCDC152 (11743942_at) / Fold change /veh CCDC152 (11743942_at) / RFU ECM1 (11717891_a_at) / Fold change /veh ECM1 (11717891_a_at) / RFU IL23R (11748794_a_at) / Fold change /veh IL23R (11748794_a_at) / RFU TNFAIP8L3 (11732012_x_at) / Fold change /veh TNFAIP8L3 (11732012_x_at) / RFU MBOAT4 (11741988_at) / Fold change /veh MBOAT4 (11741988_at) / RFU 11764193_at / Fold change /veh 11764193_at / RFU TMEM53 (11763286_at) / Fold change /veh TMEM53 (11763286_at) / RFU MAGEB2 (11727129_at) / Fold change /veh MAGEB2 (11727129_at) / RFU TMEM200A (11744735_a_at) / Fold change /veh TMEM200A (11744735_a_at) / RFU CCDC152 (11751479_a_at) / Fold change /veh CCDC152 (11751479_a_at) / RFU FAM211A (11726209_a_at) / Fold change /veh FAM211A (11726209_a_at) / RFU RGS16 (11746705_a_at) / Fold change /veh RGS16 (11746705_a_at) / RFU VCAN (11755009_s_at) / Fold change /veh VCAN (11755009_s_at) / RFU RHOB (11743442_s_at) / Fold change /veh RHOB (11743442_s_at) / RFU RGS16 (11720943_a_at) / Fold change /veh RGS16 (11720943_a_at) / RFU RGS16 (11720944_at) / Fold change /veh RGS16 (11720944_at) / RFU, VPS4B / Fold change vs veh, VPS4B / RFU, CREB1 / Fold change vs veh, CREB1 / RFU, DNAJC13 / Fold change vs veh, DNAJC13 / RFU, GNAQ / Fold change vs veh, GNAQ / RFU, CDK5R1 / Fold change vs veh, CDK5R1 / RFU, ZRANB3 / Fold change vs veh, ZRANB3 / RFU, CUL4A / Fold change vs veh, CUL4A / RFU, CCNY / Fold change vs veh, CCNY / RFU, UFL1 / Fold change vs veh, UFL1 / RFU, COG3 / Fold change vs veh, COG3 / RFU, DIAPH2 / Fold change vs veh, DIAPH2 / RFU, SKA2 / Fold change vs veh, SKA2 / RFU, AFF3 / Fold change vs veh, AFF3 / RFU, LMF1 / Fold change vs veh, LMF1 / RFU, IPO11 / Fold change vs veh, IPO11 / RFU, DFFB / Fold change vs veh, DFFB / RFU, FOXP1 / Fold change vs veh, FOXP1 / RFU, CARD8 / Fold change vs veh, CARD8 / RFU, STRN3 / Fold change vs veh, STRN3 / RFU, ADK / Fold change vs veh, ADK / RFU, RASSF2 / Fold change vs veh, RASSF2 / RFU, WIPF1 / Fold change vs veh, WIPF1 / RFU, LARP1B / Fold change vs veh, LARP1B / RFU, RASA1 / Fold change vs veh, RASA1 / RFU, RB1 / Fold change vs veh, RB1 / RFU, PPFIA1 / Fold change vs veh, PPFIA1 / RFU, MAT2A / Fold change vs veh, MAT2A / RFU, CCT5 / Fold change vs veh, CCT5 / RFU, WDR92 / Fold change vs veh, WDR92 / RFU, CUX1 / Fold change vs veh, CUX1 / RFU, TTC7A / Fold change vs veh, TTC7A / RFU, TMEM135 / Fold change vs veh, TMEM135 / RFU, DEPTOR / Fold change vs veh, DEPTOR / RFU, CPM / Fold change vs veh, CPM / RFU, DNAJB6 / Fold change vs veh, DNAJB6 / RFU, CACNA2D3 / Fold change vs veh, CACNA2D3 / RFU, DTX4 / Fold change vs veh, DTX4 / RFU, TFCP2 / Fold change vs veh, TFCP2 / RFU, GMCL1 /// GMCL1P1 / Fold change vs veh, GMCL1 /// GMCL1P1 / RFU, AEBP2 / Fold change vs veh, AEBP2 / RFU, SNHG1 /// SNORD22 /// SNORD25 /// SNORD26 /// SNORD27 /// SNORD28 /// SNORD29 /// SNORD31 / Fold change vs veh, SNHG1 /// SNORD22 /// SNORD25 /// SNORD26 /// SNORD27 /// SNORD28 /// SNORD29 /// SNORD31 / Fold change (Aza/veh), C12orf56 (ProbeSet 11735607_a_at) / Fold change (ACY-1035/veh), C12orf56 (ProbeSet 11735607_a_at) / Fold change (Aza/veh), FGFR1OP (ProbeSet 11751329_s_at) / Fold change (ACY-1035/veh), FGFR1OP (ProbeSet 11751329_s_at) / Fold change (Aza/veh), VPS36 (ProbeSet 11739960_a_at) / Fold change (ACY-1035/veh), VPS36 (ProbeSet 11739960_a_at) / RFU SYPL1 (11715823_x_at) / Fold change /veh SYPL1 (11715823_x_at) / RFU IGFBP7 (11715501_s_at) / Fold change /veh IGFBP7 (11715501_s_at) / RFU REEP3 (11722064_at) / Fold change /veh REEP3 (11722064_at) / RFU IGLL1 (11728026_x_at) / Fold change /veh IGLL1 (11728026_x_at): dose or concentration left out as unconfirmed
Settings: ProbeSet 11763895_x_at; LIST B

For `Nc1ncn([C@@H]2O[C@H](CO)[C@@H](O)[C@H]2O)c(=O)n1` [azacitidine], the “RFU, SNORA58” value was 17.25 RFU.
